Measured values as given in ChEMBL document CHEMBL4725222, “Advances in the Development of Phosphodiesterase-4 Inhibitors” (J Med Chem, 2020).

Assays:
[1] = biological target: T1, 3',5'-cyclic-AMP phosphodiesterase 4D (Homo sapiens, UniProt Q08499); experiment: Inhibition of PDE4D (unknown origin)
[2] = biological target: T2, 3',5'-cyclic-AMP phosphodiesterase 4B (Homo sapiens, UniProt Q07343); experiment: Inhibition of PDE4B (unknown origin)
[3] = biological target: 3',5'-cyclic-AMP phosphodiesterase 4A (Homo sapiens, UniProt P27815); experiment: Inhibition of PDE4A (unknown origin)
Sequence of 3',5'-cyclic-AMP phosphodiesterase 4A (P27815 whole entry): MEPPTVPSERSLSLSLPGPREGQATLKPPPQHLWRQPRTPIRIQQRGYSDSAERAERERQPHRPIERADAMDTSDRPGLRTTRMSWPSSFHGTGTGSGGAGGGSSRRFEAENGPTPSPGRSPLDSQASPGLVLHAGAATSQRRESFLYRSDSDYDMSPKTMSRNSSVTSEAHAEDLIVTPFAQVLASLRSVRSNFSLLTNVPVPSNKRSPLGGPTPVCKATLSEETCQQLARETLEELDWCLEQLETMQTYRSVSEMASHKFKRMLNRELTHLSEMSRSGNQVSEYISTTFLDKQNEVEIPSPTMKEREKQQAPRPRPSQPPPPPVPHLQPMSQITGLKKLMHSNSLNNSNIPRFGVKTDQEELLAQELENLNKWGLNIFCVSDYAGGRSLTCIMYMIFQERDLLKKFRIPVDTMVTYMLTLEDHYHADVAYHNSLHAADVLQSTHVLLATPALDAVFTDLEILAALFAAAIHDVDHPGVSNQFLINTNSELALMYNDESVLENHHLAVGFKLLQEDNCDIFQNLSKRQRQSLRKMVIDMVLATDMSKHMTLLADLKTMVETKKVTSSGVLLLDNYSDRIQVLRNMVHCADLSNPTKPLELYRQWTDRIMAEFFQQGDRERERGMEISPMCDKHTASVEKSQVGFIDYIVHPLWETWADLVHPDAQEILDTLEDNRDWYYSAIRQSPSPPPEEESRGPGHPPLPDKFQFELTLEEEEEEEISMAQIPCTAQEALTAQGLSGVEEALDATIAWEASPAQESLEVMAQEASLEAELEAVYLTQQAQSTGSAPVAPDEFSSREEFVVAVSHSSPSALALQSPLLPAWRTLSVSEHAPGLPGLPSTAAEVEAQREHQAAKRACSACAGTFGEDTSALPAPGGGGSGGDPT

[4] = biological target: T1, 3',5'-cyclic-AMP phosphodiesterase 4D; experiment: Inhibition of PDE4D3 (unknown origin)
Phosphodiesterase 4 [5] = biological target: T3, Phosphodiesterase 4 (Homo sapiens, UniProt P27815+Q08499+Q07343+Q08493); experiment: Inhibition of PDE4 (unknown origin) expressed in Saccharomyces cerevisiae using [3H] cAMP as substrate incubated for 1 hr by scintillation proximity assay
[6] = biological target: cGMP-inhibited 3',5'-cyclic phosphodiesterase 3A (Homo sapiens, UniProt Q14432); experiment: Inhibition of recombinant human PDE3A catalytic domain expressed in baculovirus infected sf9 cells using 3H-cAMP as substrate incubated for 20 mins by scintillation counting method
Sequence of cGMP-inhibited 3',5'-cyclic phosphodiesterase 3A (Q14432 whole entry, the tested form may be a part): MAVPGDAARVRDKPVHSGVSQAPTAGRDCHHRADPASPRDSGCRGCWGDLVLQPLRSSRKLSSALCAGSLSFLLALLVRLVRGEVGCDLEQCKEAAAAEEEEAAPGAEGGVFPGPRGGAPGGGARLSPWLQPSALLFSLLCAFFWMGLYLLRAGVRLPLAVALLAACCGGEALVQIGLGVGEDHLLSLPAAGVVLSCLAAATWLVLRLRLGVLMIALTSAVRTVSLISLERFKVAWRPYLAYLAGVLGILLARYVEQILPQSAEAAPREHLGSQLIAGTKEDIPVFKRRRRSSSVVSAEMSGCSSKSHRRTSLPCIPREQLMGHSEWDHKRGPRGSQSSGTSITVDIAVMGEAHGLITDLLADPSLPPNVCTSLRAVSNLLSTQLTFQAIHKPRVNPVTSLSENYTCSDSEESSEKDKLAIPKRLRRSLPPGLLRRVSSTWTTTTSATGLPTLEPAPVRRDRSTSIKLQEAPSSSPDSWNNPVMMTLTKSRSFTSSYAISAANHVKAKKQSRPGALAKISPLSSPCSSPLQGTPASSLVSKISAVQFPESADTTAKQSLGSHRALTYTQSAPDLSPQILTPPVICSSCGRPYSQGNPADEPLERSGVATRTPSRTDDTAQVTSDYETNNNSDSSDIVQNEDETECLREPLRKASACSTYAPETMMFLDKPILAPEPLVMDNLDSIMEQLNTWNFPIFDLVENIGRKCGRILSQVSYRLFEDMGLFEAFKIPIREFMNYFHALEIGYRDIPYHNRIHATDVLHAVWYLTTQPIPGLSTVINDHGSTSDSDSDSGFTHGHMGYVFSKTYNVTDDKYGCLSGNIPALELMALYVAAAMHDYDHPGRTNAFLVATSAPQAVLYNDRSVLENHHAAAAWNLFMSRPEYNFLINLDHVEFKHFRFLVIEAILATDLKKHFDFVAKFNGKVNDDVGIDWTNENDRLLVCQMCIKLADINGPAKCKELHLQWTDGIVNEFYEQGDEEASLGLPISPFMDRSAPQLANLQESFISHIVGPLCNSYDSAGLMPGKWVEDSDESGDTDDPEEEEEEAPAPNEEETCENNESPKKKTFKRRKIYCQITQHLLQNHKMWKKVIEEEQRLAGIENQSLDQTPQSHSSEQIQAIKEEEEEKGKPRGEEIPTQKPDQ

[7] = biological target: T2, 3',5'-cyclic-AMP phosphodiesterase 4B; experiment: Inhibition of recombinant human PDE4B catalytic domain expressed in baculovirus infected sf9 cells using 3H-cAMP as substrate incubated for 20 mins by scintillation counting method
[8] = biological target: 3',5'-cyclic-AMP phosphodiesterase 4C (Homo sapiens, UniProt Q08493); experiment: Inhibition of N-terminal GST tagged full length human PDE4C1 expressed in baculovirus infected Sf9 cell expression system using cAMP as substrate incubated for 60 mins by time-resolved fluorescence competitive immunoassay
Sequence of 3',5'-cyclic-AMP phosphodiesterase 4C (Q08493 whole entry): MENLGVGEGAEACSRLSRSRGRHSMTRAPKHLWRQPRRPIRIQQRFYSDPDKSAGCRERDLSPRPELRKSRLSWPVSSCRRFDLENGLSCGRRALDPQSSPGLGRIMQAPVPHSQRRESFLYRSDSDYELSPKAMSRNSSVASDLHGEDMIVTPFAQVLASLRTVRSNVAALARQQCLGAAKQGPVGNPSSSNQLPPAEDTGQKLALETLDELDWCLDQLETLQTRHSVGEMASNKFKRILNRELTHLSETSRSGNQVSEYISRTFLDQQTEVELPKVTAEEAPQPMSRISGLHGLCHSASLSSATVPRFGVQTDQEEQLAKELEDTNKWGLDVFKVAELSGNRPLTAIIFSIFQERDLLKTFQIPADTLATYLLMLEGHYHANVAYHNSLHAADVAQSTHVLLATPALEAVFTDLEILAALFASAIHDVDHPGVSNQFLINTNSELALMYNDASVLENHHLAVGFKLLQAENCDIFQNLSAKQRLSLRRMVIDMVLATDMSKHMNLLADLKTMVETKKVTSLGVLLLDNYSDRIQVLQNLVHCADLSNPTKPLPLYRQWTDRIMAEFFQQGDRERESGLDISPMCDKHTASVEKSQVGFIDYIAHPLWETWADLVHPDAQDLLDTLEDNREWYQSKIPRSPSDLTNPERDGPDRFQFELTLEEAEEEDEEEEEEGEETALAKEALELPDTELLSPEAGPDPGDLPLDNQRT

[9] = biological target: T2, 3',5'-cyclic-AMP phosphodiesterase 4B; experiment: Inhibition of N-terminal GST tagged full length human PDE4B2 expressed in baculovirus infected Sf9 cell expression system using cAMP as substrate incubated for 60 mins by time-resolved fluorescence competitive immunoassay
[10] = biological target: T2, 3',5'-cyclic-AMP phosphodiesterase 4B; experiment: Inhibition of recombinant human PDE4B2 using cAMP as substrate preincubated for 5 mins followed by substrate addition and measured after 60 mins by luminescence method
[11] = Inhibition of TNFalpha in mouse model of sepsis; type: functional
Phosphodiesterase 4 [12] = biological target: T3, Phosphodiesterase 4; experiment: Inhibition of PDE4 (unknown origin); type: protein assay
[13] = biological target: T2, 3',5'-cyclic-AMP phosphodiesterase 4B; experiment: Inhibition of recombinant human PDE4B2 preincubated for 30 mins followed by [3H]cyclic AMP addition and measured after 20 mins by radiometric assay
[14] = biological target: T2, 3',5'-cyclic-AMP phosphodiesterase 4B; experiment: Inhibition of recombinant human PDE4B2 using cAMP as substrate preincubated for 15 mins followed by substrate addition and measured after 60 mins by Alphascreen assay
[15] = biological target: T2, 3',5'-cyclic-AMP phosphodiesterase 4B; experiment: Inhibition of full length human PDE4B2 expressed in baculovirus infected Sf9 cell expression system preincubated for 10 mins followed by cAMP addition and measured after 30 mins by fluorescence method
[16] = biological target: T1, 3',5'-cyclic-AMP phosphodiesterase 4D; experiment: Inhibition of full length human PDE4D2 preincubated for 10 mins followed by cAMP addition and measured after 30 mins by fluorescence method
[17] = Inhibition of human platelet derived PDE3
Phosphodiesterase 4 [18] = biological target: T3, Phosphodiesterase 4; experiment: Inhibition of human neutrophil derived PDE4; type: protein assay
Phosphodiesterase 4 [19] = biological target: T3, Phosphodiesterase 4; experiment: Inhibition of human U937 cell derived PDE4 using [3H]cAMP as substrate incubated for 60 mins by Scintillation proximity assay; type: protein assay
[20] = Inhibition of recombinant human His-tagged PDE7 expressed in baculovirus infected in sf9 cells incubated for 60 mins by Scintillation counting method
[21] = biological target: T2, 3',5'-cyclic-AMP phosphodiesterase 4B; experiment: Inhibition of recombinant human PDE4B expressed in Sf9 cells by IMAP phosphodiesterase assay
Phosphodiesterase 4 [22] = biological target: T3, Phosphodiesterase 4; experiment: Inhibition of human U937 cell derived PDE4 preincubated for 15 mins followed by […] and cAMP addition and measured after 20 mins by liquid scintillation counter; type: protein assay
[23] = Antiinflammatory activity in human nasal polyp cells assessed as reduction in TNFalpha release incubated for 30 mins followed by anti-IgE stimulation and measured after 18 hrs by ELISA; type: functional, cell-based; conditions: Nasal polyp cell
Phosphodiesterase 4 [24] = biological target: T3, Phosphodiesterase 4; experiment: Inhibition of cytosolic PDE4 in human PMNL using [3H]cAMP as substrate by liquid scintillation counting method
[25] = biological target: T2, 3',5'-cyclic-AMP phosphodiesterase 4B; experiment: Inhibition of human PDE4B2 expressed in HEK293 cells using cAMP as substrate incubated for 45 to 60 mins by ELISA
[26] = biological target: High affinity 3',5'-cyclic-AMP phosphodiesterase 7A (Homo sapiens, UniProt Q13946); experiment: Inhibition of human PDE7A expressed in HEK293 cells using cAMP as substrate incubated for 60 mins by ELISA
Phosphodiesterase 4 [27] = biological target: T3, Phosphodiesterase 4; experiment: Inhibition of PDE4 in human U937 cell lysate using cAMP as substrate by LANCE assay; type: subcellular; conditions: u-937
[28] = biological target: Muscarinic acetylcholine receptor M3 (Homo sapiens, UniProt P20309); experiment: Displacement of [3H]N -methylscopolamine from human muscarinic M3 receptor expressed in CHO-K1 cells incubated for 90 mins by scintillation counting method; type: cell-based
Sequence of Muscarinic acetylcholine receptor M3 (P20309 whole entry): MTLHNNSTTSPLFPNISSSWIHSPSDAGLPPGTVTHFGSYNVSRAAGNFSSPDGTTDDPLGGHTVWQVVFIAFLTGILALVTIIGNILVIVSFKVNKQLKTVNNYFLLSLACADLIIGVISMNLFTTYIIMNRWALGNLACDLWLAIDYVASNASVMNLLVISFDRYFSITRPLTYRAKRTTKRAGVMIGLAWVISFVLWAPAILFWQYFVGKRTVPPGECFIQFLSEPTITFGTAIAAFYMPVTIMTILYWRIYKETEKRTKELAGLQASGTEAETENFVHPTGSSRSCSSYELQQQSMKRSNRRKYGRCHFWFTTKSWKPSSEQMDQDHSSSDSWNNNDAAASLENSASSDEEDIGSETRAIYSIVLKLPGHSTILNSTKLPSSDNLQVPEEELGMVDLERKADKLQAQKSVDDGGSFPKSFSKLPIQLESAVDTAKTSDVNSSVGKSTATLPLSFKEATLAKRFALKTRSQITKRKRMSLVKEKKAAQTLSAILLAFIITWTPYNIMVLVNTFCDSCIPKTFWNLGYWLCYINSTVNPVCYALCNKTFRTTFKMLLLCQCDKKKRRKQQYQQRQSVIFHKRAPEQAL

T2 sequence (Q07343 whole entry): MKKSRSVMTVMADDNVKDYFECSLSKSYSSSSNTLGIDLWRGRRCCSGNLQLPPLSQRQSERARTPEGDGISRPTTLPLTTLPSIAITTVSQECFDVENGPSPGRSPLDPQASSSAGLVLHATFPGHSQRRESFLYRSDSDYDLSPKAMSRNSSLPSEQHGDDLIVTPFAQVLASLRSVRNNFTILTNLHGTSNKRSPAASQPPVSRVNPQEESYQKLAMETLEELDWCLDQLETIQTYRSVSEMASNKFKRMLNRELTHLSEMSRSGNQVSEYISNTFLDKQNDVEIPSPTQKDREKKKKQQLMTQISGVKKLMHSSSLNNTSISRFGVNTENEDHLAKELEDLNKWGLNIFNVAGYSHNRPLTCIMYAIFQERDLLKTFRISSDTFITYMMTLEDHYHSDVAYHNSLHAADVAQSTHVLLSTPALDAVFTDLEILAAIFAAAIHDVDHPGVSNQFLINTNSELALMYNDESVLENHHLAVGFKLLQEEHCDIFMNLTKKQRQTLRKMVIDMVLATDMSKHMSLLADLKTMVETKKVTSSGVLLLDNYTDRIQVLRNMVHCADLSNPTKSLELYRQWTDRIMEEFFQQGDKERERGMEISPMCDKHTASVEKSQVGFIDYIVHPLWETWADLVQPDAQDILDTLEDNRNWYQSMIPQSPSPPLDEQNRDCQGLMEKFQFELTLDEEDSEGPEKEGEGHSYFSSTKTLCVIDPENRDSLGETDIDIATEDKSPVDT
T1 sequence (Q08499 whole entry): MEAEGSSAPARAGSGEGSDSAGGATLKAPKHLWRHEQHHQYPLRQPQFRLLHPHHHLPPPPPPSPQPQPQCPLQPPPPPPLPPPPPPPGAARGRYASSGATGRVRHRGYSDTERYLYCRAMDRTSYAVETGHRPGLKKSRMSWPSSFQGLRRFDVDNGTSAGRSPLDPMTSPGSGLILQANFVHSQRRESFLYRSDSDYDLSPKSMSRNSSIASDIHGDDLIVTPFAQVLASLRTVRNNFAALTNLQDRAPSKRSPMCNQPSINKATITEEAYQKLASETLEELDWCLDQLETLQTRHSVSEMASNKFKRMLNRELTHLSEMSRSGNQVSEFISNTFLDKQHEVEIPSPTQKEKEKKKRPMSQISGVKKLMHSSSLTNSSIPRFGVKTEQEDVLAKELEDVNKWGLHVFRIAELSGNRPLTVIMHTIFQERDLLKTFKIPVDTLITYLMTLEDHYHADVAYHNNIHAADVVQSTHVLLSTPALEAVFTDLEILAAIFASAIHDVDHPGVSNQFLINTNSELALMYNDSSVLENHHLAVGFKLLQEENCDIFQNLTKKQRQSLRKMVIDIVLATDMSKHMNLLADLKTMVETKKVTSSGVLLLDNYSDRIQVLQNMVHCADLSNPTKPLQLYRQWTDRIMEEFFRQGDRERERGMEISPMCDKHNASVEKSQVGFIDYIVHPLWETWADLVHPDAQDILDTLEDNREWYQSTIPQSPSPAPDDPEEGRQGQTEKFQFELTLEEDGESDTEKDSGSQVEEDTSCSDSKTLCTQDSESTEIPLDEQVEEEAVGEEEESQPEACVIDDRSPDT

Cc1ccc(O)c(C(=O)N[C@H]2CC[C@@H](NC(=O)c3cc(F)cnc3Oc3ccc(F)c(F)c3)CC2)c1 [UK-500001]
IC50 [1]: 0.38 nM
IC50 [2]: 0.38 nM
IC50 [3]: 0.38 nM

COc1ccc([C@H]2CNC(=O)[C@H](Cc3cccc(C)c3)C2)cc1OC1CCCC1 [HT-0712]
IC50 [4]: 150 nM

CCNC(=O)c1cc(C(=O)NCCCN(C)C)cc(-c2cc(NC(=O)Nc3c(Cl)cncc3Cl)c(=O)n(CC)n2)c1
IC50 (Phosphodiesterase 4 [5]): 0.05 nM

COC1=CC=C(C2=NN(CCCCCOc3ccc(C4=NNC(=O)CC4C)cc3)C(=O)CC2C)C2CC(C(F)(F)F)=NN12 (stereo unspecified)
IC50 [6]: 360 nM
IC50 [7]: 42 nM

CCOc1cc([C@H](CS(C)(=O)=O)N2C(=O)c3cccc(NC(=O)OCCOCCOCCOCCOCCOC)c3C2=O)ccc1OC
IC50 [8]: 3 nM
IC50 [9]: 3 nM

COc1cccc(Nc2c(C(N)=O)ccc3c(C)cc(S(=O)(=O)c4cccc(C(=O)Nc5ccc(C#CCCCNC[C@@H](O)c6ccc(O)c7[nH]c(=O)ccc67)cc5)c4)cc23)c1
IC50 [10]: 5 nM

NS(=O)(=O)c1cccc(-c2c(-c3ccccc3)nc(C(F)(F)F)nc2N2CCOCC2)c1
EC50 [11]: 0.01 mg/kg
IC50 (Phosphodiesterase 4 [12]): 7 nM

O=C(N[C@H]1CC[C@@H](C2C(=O)c3cc(F)cnc3N(C3CCSCC3)C2=O)CC1)c1cn2cc(F)ccc2n1 (stereo partly specified)
IC50 [13]: 0.126 nM

CCOc1cc([C@H](CS(C)(=O)=O)N2C(=O)c3cccc(NC(=O)OCCOCCOCCOCCOC)c3C2=O)ccc1OC
IC50 [8]: 3 nM
IC50 [9]: 3 nM

COc1ccc(-c2nc(C(=O)NCc3coc4ccccc34)c([C@@H](C)N)o2)c2ccc(C(F)(F)F)nc12
IC50 [14]: 0.01 nM

CCOc1cc([C@H](CS(C)(=O)=O)N2C(=O)c3cccc(NC(=O)OCCOCCOCCOC)c3C2=O)ccc1OC
IC50 [8]: 3 nM
IC50 [9]: 3 nM

COc1ccc(-c2nc3c(c(Nc4ccc(CC(=O)O)cc4)n2)SCCC3)cc1F
IC50 [15]: 5.5 nM
IC50 [16]: 440 nM

CCOc1cc2c(cc1OC)C(c1ccc(C(=O)N(C(C)C)C(C)C)cc1)=N[C@@H]1CCN(C)C[C@H]21 [PUMAFENTRINE]
IC50 [17]: 28 nM
IC50 (Phosphodiesterase 4 [18]): 7 nM

Cn1nc(C(=O)NC2CCC(NC(=O)c3cc(F)cnc3Oc3cccc(-c4ccc(CCCN5CCNCC5)cc4)c3)CC2)cc1C(F)(F)F (stereo unspecified)
IC50 [13]: 0.01 nM

CCOc1cc([C@H](CS(C)(=O)=O)N2C(=O)c3cccc(NC(=O)OCCOCCOCCOCCOCCOCCOCCOC)c3C2=O)ccc1OC
IC50 [8]: 3 nM
IC50 [9]: 3 nM

CCOC(=O)c1cnc2c(cnn2CC)c1NN=C(C)C [ETAZOLATE]
IC50 [4]: 390 nM

CCOc1ccc(-c2c(C(C)(C)O)oc(=O)c3ccccc23)cc1OC1CCCC1
IC50 (Phosphodiesterase 4 [19]): 2900 nM
IC50 [20]: 1400 nM

COc1ccc(C2=NN(CCCCCc3ccccc3)C(=O)CC2)cc1OC
IC50 [21]: 0.9 nM

COc1ccc(-c2ccc3nc(N)nc(N4CCN(C(=O)Nc5ccc(Cl)cc5)CC4)c3n2)cc1OC
IC50 (Phosphodiesterase 4 [22]): 0.4 nM

O=C(C(=O)c1cn(Cc2ccc(F)cc2)c2ccc(O)cc12)c1c(Cl)cncc1Cl
EC50 [23]: 110 nM
IC50 (Phosphodiesterase 4 [24]): 9.7 nM

CCc1nc2c(cnn2CC)c(NC2CCCCC2)c1C1=NOC2(C1)CC(C1N=NN=N1)C2 (stereo unspecified)
IC50 [25]: 5 nM
IC50 [26]: 55 nM

O=C(O[C@@H](Cc1c(Cl)c[n+]([O-])cc1Cl)c1ccc(OC(F)F)c(OCC2CC2)c1)C1CN(C(=O)c2ccc(COc3cccc(CN(C(=O)O[C@H]4CN5CCC4CC5)c4ccccc4)c3)cc2)C1
IC50 (Phosphodiesterase 4 [27]): 100 nM
IC50 [28]: 100 nM
